Reference: US12539292B2, “BRM targeting compounds and associated methods of use” (Arvinas Operations, Inc., priority 2018, dated 2026)
Like-named read-outs stand apart in the source and are kept apart here. Blank lines part the entries; values can stand above or below the compound they belong to.

Biological target: T1, BRM (Homo sapiens, UniProt P51531)
T1 construct: In-Cell Western Screen of BRM Degradation in SW1573 Cells; endogenous in cells; host or cells: SW1573
Experiment: In-cell Western screen of BRM degradation in SW1573 cells (Dmax and DC50)
Type: cell-based
Method in brief: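 Adherent SW1573 cultures exposed to test compounds for 18-20 h were processed for in-cell Western after PFA fixation and detergent permeabilization. BRM degradation was reported as Dmax and DC50.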

[1] = BRM degradation, read-out: BRM DC50
[2] = BRM degradation, SW1573 cells, Table 2D, read-out: *DC50
[3] = BRM degradation, SW1573 cells, read-out: DC50
[4] = BRM degradation, SW1573 cells, when tested at the top concentration of between 0.3 and 10 μM, read-out: Dmax (%) (% degraded)
[5] = target protein degradation, read-out: BRM DC50

T1 sequence (P51531 whole entry): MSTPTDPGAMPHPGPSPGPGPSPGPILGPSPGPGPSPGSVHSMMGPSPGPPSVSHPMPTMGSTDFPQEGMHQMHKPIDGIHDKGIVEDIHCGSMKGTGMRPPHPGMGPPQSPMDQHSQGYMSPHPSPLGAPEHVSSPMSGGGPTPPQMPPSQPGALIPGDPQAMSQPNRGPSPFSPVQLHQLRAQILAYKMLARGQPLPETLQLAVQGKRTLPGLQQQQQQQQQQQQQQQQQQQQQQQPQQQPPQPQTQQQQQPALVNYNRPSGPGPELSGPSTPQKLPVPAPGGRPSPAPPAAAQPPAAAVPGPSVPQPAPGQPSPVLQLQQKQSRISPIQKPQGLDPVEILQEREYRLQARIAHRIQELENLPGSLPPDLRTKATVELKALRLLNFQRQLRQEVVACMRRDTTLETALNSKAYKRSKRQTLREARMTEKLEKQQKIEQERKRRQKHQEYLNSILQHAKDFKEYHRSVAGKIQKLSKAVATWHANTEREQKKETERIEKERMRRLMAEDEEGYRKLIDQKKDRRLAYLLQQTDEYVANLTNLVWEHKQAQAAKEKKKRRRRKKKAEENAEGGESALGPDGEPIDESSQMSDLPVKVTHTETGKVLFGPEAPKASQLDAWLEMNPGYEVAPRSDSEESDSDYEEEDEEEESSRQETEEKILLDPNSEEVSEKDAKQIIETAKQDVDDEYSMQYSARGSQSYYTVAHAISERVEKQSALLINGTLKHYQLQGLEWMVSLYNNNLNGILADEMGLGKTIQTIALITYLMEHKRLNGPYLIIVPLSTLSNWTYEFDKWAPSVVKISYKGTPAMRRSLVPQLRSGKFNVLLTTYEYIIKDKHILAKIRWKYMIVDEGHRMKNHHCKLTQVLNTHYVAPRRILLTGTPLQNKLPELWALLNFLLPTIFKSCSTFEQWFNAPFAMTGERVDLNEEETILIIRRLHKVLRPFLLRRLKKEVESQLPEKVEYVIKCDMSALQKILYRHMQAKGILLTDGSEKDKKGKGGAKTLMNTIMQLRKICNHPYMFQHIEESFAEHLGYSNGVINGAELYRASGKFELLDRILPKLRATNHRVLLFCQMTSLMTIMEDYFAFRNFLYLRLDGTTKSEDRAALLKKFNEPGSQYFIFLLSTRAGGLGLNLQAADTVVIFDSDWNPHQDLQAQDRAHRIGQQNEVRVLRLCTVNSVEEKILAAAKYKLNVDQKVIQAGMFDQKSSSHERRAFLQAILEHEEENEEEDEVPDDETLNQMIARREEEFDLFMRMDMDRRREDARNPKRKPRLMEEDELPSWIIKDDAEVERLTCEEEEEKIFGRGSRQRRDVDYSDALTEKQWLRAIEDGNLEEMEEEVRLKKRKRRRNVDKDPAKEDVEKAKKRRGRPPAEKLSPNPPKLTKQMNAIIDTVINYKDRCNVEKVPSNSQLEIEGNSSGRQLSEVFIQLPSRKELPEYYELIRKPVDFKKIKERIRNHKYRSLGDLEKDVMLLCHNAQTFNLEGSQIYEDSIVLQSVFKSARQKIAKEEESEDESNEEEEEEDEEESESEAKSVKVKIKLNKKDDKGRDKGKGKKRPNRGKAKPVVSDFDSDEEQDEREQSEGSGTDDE

Compound: Cc1ncsc1-c1ccc([C@H](C)NC(=O)[C@@H]2C[C@@H](O)CN2C(=O)[C@@H](NC(=O)CN2CCC(OC3CC(Oc4cc(N5C6CC[C@@H]5CN(c5cc(-c7ccccc7O)nnc5N)C6)ccn4)C3)CC2)C(C)(C)C)cc1 (stereo partly drawn) [compound 520, (2S,4R)-1-((2S)-2-(2-(4-((1r,3S)-3-((4-(3-(3-amino-6-(2-hydroxyphenyl)pyridazin-4-yl)-3,8-diazabicyclo[3.2.1]octan-8-yl)pyridin-2-yl)oxy)cyclobutoxy)pipcridin-1-yl)acetamido)-3,3-dimethylbutanoyl)-4-hydroxy-N-((S)-1-(4-(4-methylthiazol-5-yl)phenyl)ethyl)pyrrolidine-2-carboxamide]
BRM Dmax (%) (% degraded, when tested at the top concentration of between 0.3 and 10 μM): A (A > 75)
DC50 [1]: < 2.5 nM

Compound: Cc1ncsc1-c1ccc([C@H](C)NC(=O)[C@@H]2C[C@@H](O)CN2C(=O)[C@H](c2cc(N3CCC(CN4CCC(O[C@H]5C[C@H](CN6CCOC7(CCN(c8cc(-c9ccccc9O)nnc8N)CC7)C6)C5)CC4)CC3)no2)C(C)C)cc1 [compound 609, (2S,4R)-1-((S)-2-(3-(4-((4-((1r,3r)-3-((9-(3-amino-6-(2-hydroxyphenyl)pyridazin-4-yl)-1-oxa-4,9-diazaspiro[5.5]undecan-4-yl)methyl)cyclobutoxy)piperidin-1-yl)methyl)piperidin-1-yl)isoxazol-5-yl)-3-methylbutanoyl)-4-hydroxy-N-((S)-1-(4-(4-methylthiazol-5-yl)phenyl)ethyl)pyrrolidine-2-carboxamide]
DC50 [2]: > 30 nM

Compound: Cc1ncsc1-c1ccc([C@H](C)NC(=O)[C@@H]2C[C@@H](O)CN2C(=O)[C@@H](c2cc(OCCN3CCC(O[C@H]4C[C@H](Oc5cc(N6C7CCC6CN(c6cc(-c8cc(F)ccc8O)nnc6N)C7)ccn5)C4)CC3)no2)C(C)C)cc1 [compound 502, (2S,4R)-1-((2R)-2-(3-(2-(4-((1r,3R)-3-((4-(3-(3-amino-6-(5-fluoro-2-hydroxyphenyl)pyridazin-4-yl)-3,8-diazabicyclo[3.2.1]octan-8-yl)pyridin-2-yl)oxy)cyclobutoxy)piperidin-1-yl)ethoxy)isoxazol-5-yl)-3-methylbutanoyl)-4-hydroxy-N-((S)-1-(4-(4-methylthiazol-5-yl)phenyl)ethyl)pyrrolidine-2-carboxamide]
DC50 [1]: < 2.5 nM
Dmax (SW1573, % degraded, when tested at the top concentration of between 0.3 and 10 μM, read-out: BRM Dmax (%)): > 75%

Compound: Cc1ncsc1-c1ccc(CNC(=O)[C@@H]2C[C@@H](O)CN2C(=O)[C@@H](NC(=O)COCCOCCOCCOC/C=C/c2cc(N3C4CCC3CN(c3cc(-c5ccccc5O)nnc3N)C4)ccn2)C(C)(C)C)cc1 [compound 52, (2S,4R)-1-((S,E)-18-(4-(3-(3-amino-6-(2-hydroxyphenyl)pyridazin-4-yl)-3,8-diaza-bicyclo[3.2.1]octan-8-yl)pyridin-2-yl)-2-tert-butyl-4-oxo-6,9,12,15-tetraoxa-3-azaoctadec-17-en-1-oyl)-4-hydroxy-N-(4-(4-methylthiazol-5-yl)benzyl)pyrrolidine-2-carboxamide]
DC50 [3]: 10 to 30 nM
Dmax [4]: > 75%

DC50 [3]: < 2.5 nM
Dmax [4]: > 75%
Compound: Cc1ncsc1-c1ccc([C@H](C)NC(=O)[C@@H]2C[C@@H](O)CN2C(=O)[C@@H](c2cc(OCCOc3ccc(C(C)n4cc(-c5cc(-c6ccccc6O)nnc5N)cn4)cn3)no2)C(C)C)cc1 (stereo partly drawn) [compound 82, (2S,4R)-1-((2R)-2-(3-(2-((5-(1-(4-(3-amino-6-(2-hydroxyphenyl)pyridazin-4-yl)-1H-pyrazol-1-yl)ethyl)pyridin-2-yl)oxy)ethoxy)isoxazol-5-yl)-3-methylbutanoyl)-4-hydroxy-N-((S)-1-(4-(4-methylthiazol-5-yl)phenyl)ethyl)pyrrolidine-2-carboxamide]

Compound: Cc1ncsc1-c1ccc([C@@H](NC(=O)[C@@H]2C[C@@H](O)CN2C(=O)[C@@H](c2cc(N3CCC(CN4CCC(O[C@H]5C[C@H](Oc6cc(N7C8CCC7CN(c7cc(-c9ccccc9O)nnc7N)C8)ccn6)C5)CC4)CC3)no2)C(C)C)C(F)F)cc1 [compound 572, (2S,4R)-1-((2R)-2-(3-(4-((4-((1r,3r)-3-((4-(3-(3-amino-6-(2-hydroxyphenyl)pyridazin-4-yl)-3,8-diazabicyclo[3.2.1]octan-8-yl)pyridin-2-yl)oxy)cyclobutoxy)piperidin-1-yl)methyl)piperidin-1-yl)isoxazol-5-yl)-3-methylbutanoyl)-N-((R)-2,2-difluoro-1-(4-(4-methylthiazol-5-yl)phenyl)ethyl)-4-hydroxypyrrolidine-2-carboxamide]
Dmax (BRM degradation, SW1573 cells, Table 2D, read-out: **Dmax (%) (% degraded)): > 75%
DC50 [2]: < 2.5 nM

Compound: CCOC[C@H](NC(=O)[C@@H]1C[C@@H](O)CN1C(=O)[C@@H](c1cc(OCCN2CCN(CCOc3cc(N4C5CCC4CN(c4cc(-c6ccccc6O)nnc4N)C5)ccn3)CC2)no1)C(C)C)c1ccc(-c2scnc2C)cc1 [compound 128, (2S,4R)-1-((2R)-2-(3-(2-(4-(2-((4-(3-(3-amino-6-(2-hydroxyphenyl)pyridazin-4-yl)-3,8-diazabicyclo[3.2.1]octan-8-yl)pyridin-2-yl)oxy)ethyl)piperazin-1-yl)ethoxy)isoxazol-5-yl)-3-methylbutanoyl)-N-((R)-2-ethoxy-1-(4-(4-methylthiazol-5-yl)phenyl)ethyl)-4-hydroxypyrrolidine-2-carboxamide]
DC50 [3]: < 2.5 nM
Dmax [4]: > 75%

DC50 [3]: < 2.5 nM
Dmax (BRM degradation, SW1573 cells, tested at the top concentration of between 0.3 and 10 μM, read-out: Dmax (%) (% degraded)): > 75%
Compound: Cc1ncsc1-c1ccc([C@H](C)NC(=O)[C@@H]2C[C@@H](O)CN2C(=O)[C@@H](c2cc(OCCN3CCN(CC#CCN4CCOC5(CCN(c6cc(-c7ccccc7O)nnc6N)CC5)C4)CC3)no2)C(C)C)cc1 [compound 188, (2S,4R)-1-((R)-2-(3-(2-(4-(4-(9-(3-amino-6-(2-hydroxyphenyl)pyridazin-4-yl)-1-oxa-4,9-diazaspiro[5.5]undecan-4-yl)but-2-yn-1-yl)piperazin-1-yl)ethoxy)isoxazol-5-yl)-3-methylbutanoyl)-4-hydroxy-N-((S)-1-(4-(4-methylthiazol-5-yl)phenyl)ethyl)pyrrolidine-2-carboxamide]

DC50 [3]: > 30 nM
Compound: CC(=O)N1CC(NC(=O)[C@@H]2C[C@@H](O)CN2C(=O)[C@H](c2cc(OCCN3CCN(CCOc4cc(N5C6CCC5CN(c5cc(-c7ccccc7O)nnc5N)C6)ccn4)CC3)no2)C(C)C)(c2ccc(-c3scnc3C)cc2)C1 [compound 235, (2S,4R)-N-(1-acetyl-3-(4-(4-methylthiazol-5-yl)phenyl)azetidin-3-yl)-1-((2S)-2-(3-(2-(4-(2-((4-(3-(3-amino-6-(2-hydroxyphenyl)pyridazin-4-yl)-3,8-diazabicyclo[3.2.1]octan-8-yl)pyridin-2-yl)oxy)ethyl)piperazin-1-yl)ethoxy)isoxazol-5-yl)-3-methylbutanoyl)-4-hydroxypyrrolidine-2-carboxamide]

Compound: Cc1ncsc1-c1ccc([C@H](C)NC(=O)[C@@H]2C[C@@H](O)CN2C(=O)[C@H](c2cc(OCCN3CCC(O[C@H]4C[C@H](Oc5cnnc(N6C7CCC6CN(c6cc(-c8ccccc8O)nnc6N)C7)c5)C4)CC3)no2)C(C)C)cc1 [compound 470, (2S,4R)-1-((2S)-2-(3-(2-(4-((1r,3S)-3-((6-(3-(3-amino-6-(2-hydroxyphenyl)pyridazin-4-yl)-3,8-diazabicyclo[3.2.1]octan-8-yl)pyridazin-4-yl)oxy)cyclobutoxy)piperidin-1-yl)ethoxy)isoxazol-5-yl)-3-methylbutanoyl)-4-hydroxy-N-((S)-1-(4-(4-methylthiazol-5-yl)phenyl)ethyl)pyrrolidine-2-carboxamide]
DC50 [5]: > 30 nM

DC50 [5]: > 30 nM
Compound: Cc1ncsc1-c1ccc([C@H](C)NC(=O)[C@@H]2C[C@@H](O)CN2C(=O)[C@H](c2cc(N3CCC(OC4CCN(C[C@H]5C[C@H](Oc6cc(N7C8CCC7CN(c7cc(-c9ccccc9O)nnc7N)C8)ccn6)C5)CC4)CC3)no2)C(C)C)cn1 [compound 475, (2S,4R)-1-((2S)-2-(3-(4-((1-(((1r,3r)-3-((4-(3-(3-amino-6-(2-hydroxyphenyl)pyridazin-4-yl)-3,8-diazabicyclo[3.2.1]octan-8-yl)pyridin-2-yl)oxy)cyclobutyl)methyl)piperidin-4-yl)oxy)piperidin-1-yl)isoxazol-5-yl)-3-methylbutanoyl)-4-hydroxy-N-((S)-1-(6-(4-methylthiazol-5-yl)pyridin-3-yl)ethyl)pyrrolidine-2-carboxamide]

Compound: Cc1nccn1-c1ccc([C@H](C)NC(=O)[C@@H]2C[C@@H](O)CN2C(=O)[C@H](c2cc(N3CCN(CCN4CCC(O[C@H]5C[C@H](Oc6cc(N7C8CCC7CN(c7cc(-c9ccccc9O)nnc7N)C8)ccn6)C5)CC4)CC3)no2)C(C)C)cc1 [compound 412, (2S,4R)-1-((2S)-2-(3-(4-(2-(4-((1r,3r)-3-((4-(3-(3-amino-6-(2-hydroxyphenyl)pyridazin-4-yl)-3,8-diazabicyclo[3.2.1]octan-8-yl)pyridin-2-yl)oxy)cyclobutoxy)piperidin-1-yl)ethyl)piperazin-1-yl)isoxazol-5-yl)-3-methylbutanoyl)-4-hydroxy-N-((S)-1-(4-(2-methyl-1 H-imidazol-1-yl)phenyl)ethyl)pyrrolidine-2-carboxamide]
DC50 (degradation of BRM, read-out: BRM DC50): > 30 nM
